According to the supplement of paper PMC13380429:

Legend:
Conditions in all cases: 72 h
Caco-2 [1] = experiment: cell viability relative to DMSO; higher = less toxic
Calu-3 [2] = experiment: as above
HepG2 [3] = experiment: as above
U2OS [4] = experiment: as above
Vero E6 [5] = experiment: as above
Caco-2 [6] = experiment: relative viability EC50 (midpoint between 100% and the lowest measured viability); higher = less toxic
Calu-3 [7] = experiment: as above
HepG2 [8] = experiment: as above
U2OS [9] = experiment: as above
Vero E6 [10] = experiment: as above
Caco-2 [11] = experiment: drug sensitivity score (DSS) for viability; higher = more toxic; extreme values may be limits of the assay
Calu-3 [12] = experiment: as above
HepG2 [13] = experiment: as above
U2OS [14] = experiment: as above
Vero E6 [15] = experiment: as above

Structure (SMILES)	cell viability (Caco-2 [1]; 1 nM) [%]	cell viability (Caco-2 [1]; 10 nM) [%]	cell viability (Caco-2 [1]; 100 nM) [%]	cell viability (Caco-2 [1]; 1000 nM) [%]	cell viability (Caco-2 [1]; 10000 nM) [%]	cell viability (Calu-3 [2]; 1 nM) [%]	cell viability (Calu-3 [2]; 10 nM) [%]	cell viability (Calu-3 [2]; 100 nM) [%]	cell viability (Calu-3 [2]; 1000 nM) [%]	cell viability (Calu-3 [2]; 10000 nM) [%]	cell viability (HepG2 [3]; 1 nM) [%]	cell viability (HepG2 [3]; 10 nM) [%]	cell viability (HepG2 [3]; 100 nM) [%]	cell viability (HepG2 [3]; 1000 nM) [%]	cell viability (HepG2 [3]; 10000 nM) [%]	cell viability (U2OS [4]; 1 nM) [%]	cell viability (U2OS [4]; 10 nM) [%]	cell viability (U2OS [4]; 100 nM) [%]	cell viability (U2OS [4]; 1000 nM) [%]	cell viability (U2OS [4]; 10000 nM) [%]	cell viability (Vero E6 [5]; 1 nM) [%]	cell viability (Vero E6 [5]; 10 nM) [%]	cell viability (Vero E6 [5]; 100 nM) [%]	cell viability (Vero E6 [5]; 1000 nM) [%]	cell viability (Vero E6 [5]; 10000 nM) [%]	relative viability EC50 (Caco-2 [6]) [µM]	relative viability EC50 (Calu-3 [7]) [µM]	relative viability EC50 (HepG2 [8]) [µM]	relative viability EC50 (U2OS [9]) [µM]	relative viability EC50 (Vero E6 [10]) [µM]	drug sensitivity score (Caco-2 [11])	drug sensitivity score (Calu-3 [12])	drug sensitivity score (HepG2 [13])	drug sensitivity score (U2OS [14])	drug sensitivity score (Vero E6 [15])
COc1ccc2c(c1)C(=O)N(CCc1ccc(S(=O)(=O)NC(=O)NC3CCCCC3)cc1)C(=O)C2(C)C [gliquidone]	88.1	95.3	109	102	101	106	96.5	99.9	104	106	103	98.9	96.4	106	106	91	89.3	102	87.1	95.9	97.8	99.5	92.3	100	94.9	> 10	> 10	> 10	> 10	> 10	0	0	0	0	0
C[N+]1(C)CCC(OC(=O)C(O)(c2ccccc2)C2CCCC2)C1 (stereo not given) [glycopyrrolate]	104	98.6	94.8	103	96	102	105	97.7	102	98.5	108	99.3	97.4	92.3	105	101	102	98	99.5	95.1	106	100	100	99.7	98.3	> 10	> 10	> 10	> 10	> 10	0	0	0	0	0
COC1=CC(=O)C[C@@H](C)[C@]12Oc1c(Cl)c(OC)cc(OC)c1C2=O [griseofulvin]	106	88.5	93.6	103	88.1	106	95.7	98	107	108	86.3	95.5	95.6	101	90	102	100	102	98.8	96.2	104	98.8	91.1	107	94.8	> 10	> 10	> 10	> 10	> 10	0	0	0	0	0
O=C(O)C1=CCCNC1 [guvacine]	99.7	85.6	102	102	96.5	106	99	102	88.2	92.2	102	97	96.3	100	105	105	98.9	102	96.5	102	100	101	98	104	97.5	> 10	> 10	> 10	> 10	> 10	0	0.4	0	0	0
Cc1nccc2c1[nH]c1ccccc12 [harmane]	95.1	101	105	102	93	106	97.7	101	91.8	103	92.9	96.2	99.6	99.1	105	101	98.8	100	97.5	101	97.2	102	94.3	96.6	98.2	> 10	> 10	> 10	> 10	> 10	0	0	0	0	0
CC(N)CCCC(C)(C)O (stereo not given) [heptaminol]	90.3	91.7	96.7	107	106	94.4	144	103	101	94.2	106	96.3	102	95.6	104	95.1	97.7	98.1	103	105	95.1	95.7	97.3	94.3	104	> 10	> 10	> 10	> 10	> 10	0	0	0	0	0
CCCCCCOC(=O)CCC(=O)CN [hexaminolevulinate]	102	93.7	101	104	96.6	93.9	101	111	108	104	111	105	99	102	101	100	102	98.1	103	98.4	109	98	104	99.2	99.5	> 10	> 10	> 10	> 10	> 10	0	0	0	0	0
C[N+]1(C)[C@@H]2CC[C@H]1C[C@@H](OC(=O)C(O)c1ccccc1)C2 (stereo not given in full) [homatropine-methylbromide]	100	90.8	99.7	106	84.2	105	108	114	94.2	102	98.7	95.3	102	91.8	98.9	96.7	101	95.2	102	96.4	101	97.5	106	108	98.8	> 10	> 10	> 10	> 10	> 10	0.2	0	0	0	0
Oc1ccc(O)cc1 [hydroquinone]	100	97.6	94.2	104	106	90.5	90	93.7	100	113	106	92.4	94.7	100	84.6	95.2	91	95.4	89	117	93.3	100	94.8	105	111	> 10	> 10	> 10	> 10	> 10	0	0	0.3	0	0
O=C(/C=C/c1ccc2c(c1)OCO2)N1CCCCC1 [ilepcimide]	96.3	104	106	130	102	99.5	108	106	102	102	102	97.2	106	112	103	98.2	94.6	98.3	95.8	97.1	91	98.1	94.2	96.6	97.7	> 10	> 10	> 10	> 10	> 10	0	0	0	0	0
Cn1cc(C[C@@H](N)C(=O)O)c2ccccc21 [indoximod]	94.5	83.8	81.7	91.7	104	107	98.7	96.3	103	106	114	97.6	102	118	101	102	97	102	99.4	103	104	95.4	91.6	101	102	> 10	> 10	> 10	> 10	> 10	0.1	0	0	0	0
CCC(NC(C)C)C(O)c1ccc(O)c(O)c1 (stereo not given) [isoetharine]	85.9	100	118	102	104	108	98.9	88.4	103	95.6	102	96.7	104	101	102	90.2	97.3	95.1	95.4	94	93.1	91.8	92.9	91.9	102	> 10	> 10	> 10	> 10	> 10	0	0	0	0	0
O=C(c1ccc(F)cc1)C1CCN(CCn2c(=O)[nH]c3ccccc3c2=O)CC1 [ketanserin]	93.1	100	95.6	99.7	96.9	96.2	95.8	90.3	92.9	102	102	95	97.3	102	97.2	90	98.3	96.1	103	106	96.9	94.9	97.8	101	103	> 10	> 10	> 10	> 10	> 10	0	0	0	0	0
Cc1ncc(OC[C@@]2(c3cccc(F)c3)C[C@H]2C(=O)Nc2ccc(F)cn2)c(C)n1 [lemborexant]	94.9	97.5	89.6	94.5	100	100	100	97.6	99.6	106	97.1	103	97.8	97.9	97.3	100	100	96	101	98.1	97.4	98.1	96.8	101	96.2	> 10	> 10	> 10	> 10	> 10	0	0	0	0	0
